Paper PMC5414976, “Reduction of reactive red 241 by oxygen insensitive azoreductase purified from a novel strain Staphylococcus KU898286” (PLoS ONE, 2017)

System: T1, azoreductase
T1 construct: native enzyme purified from strain S1 cells (sonication, ammonium sulphate, Sephadex G-100); 29 kDa by SDS-PAGE
Assay: dye decolourisation at […] nm, Lineweaver-Burk
Assay type: biochemical, Staphylococcus aureus

Row | Structure (SMILES) | Km (0.5 mM RR241, NADH varied) [µM] | Km (constant NADH 1 mM (text; legend of Fig 4a says absence of NADH)) [µM]
1 | NC(=O)C1=CN([C@@H]2O[C@H](COP(=O)(O)OP(=O)(O)OC[C@H]3O[C@@H](n4cnc5c(N)ncnc54)[C@H](O)[C@@H]3O)[C@@H](O)[C@H]2O)C=CC1 [NADH] | 1020 | –
2 | O=S(=O)(O)OCCS(=O)(=O)c1ccc(Nc2nc(Cl)nc(Nc3cc(S(=O)(=O)O)cc4cc(S(=O)(=O)O)c(N=Nc5ccc6c(S(=O)(=O)O)cccc6c5S(=O)(=O)O)c(O)c34)n2)cc1 [RR241, reactive red 241] | – | 1540
